In patent US20230265151A1, “GIP/GLP1 CO-AGONIST COMPOUNDS” (priority 2020, published 2023):
Like-named read-outs stand apart in the source and are kept apart here. *1 amine or outer side, *2 acyl side, *3 side chain or, on linkers, in order; H or OH if unused. Where a SMILES comes first, the peptide text is derived from it. Side-chain parts run from the residue outwards. [ ]: non-standard residue; d: D form. The star is where a group is joined. αMePhe(2-F) = C[C@](N)(Cc1ccccc1F)C(=O)O; γGlu = O=C(O)[C@H](CCC(=O)[*:2])N[*:1]; αMeY = C[C@](N)(Cc1ccc(O)cc1)C(=O)O; αMeF = C[C@](N)(Cc1ccccc1)C(=O)O; 4Pal = N[C@@H](Cc1ccncc1)C(=O)O; αMeL = CC(C)C[C@](C)(N)C(=O)O; Lauroyl = CCCCCCCCCCCC(=O)*; Orn = NCCC[C@H](N)C(=O)O; AEEA = NCCOCCOCC(=O)O; Aib = CC(C)(N)C(=O)O

Tests used:
Format in all cases: cell-based
[1] = target: hGLP-1R (Homo sapiens, UniProt P43220); experiment: Functional cAMP formation (HTRF) in HEK-293 clonal cells expressing hGLP-1R, 0.1% bovine casein, without or with 1.0% human serum albumin; parameters: expressed in transfected cells; conditions: for EC50: geometric mean; for Emax: HEK293, cAMP, percent of maximal response to GLP-1(7-36)NH2, read-out: hGLP-1R Emax, % ± SEM
Procedure, shortened: (§1)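 Cells were stimulated with peptide for 30 min at 37° C, then intracellular cAMP was measured by competitive HTRF (665/620 nm ratio) and converted to nM using a cAMP standard curve. Relative EC50 and Emax came from four-parameter logistic fits of percent maximal response against peptide concentration.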

[2] = target: T1, hGIPR (Homo sapiens, UniProt P48546); experiment: Functional cAMP formation (HTRF) in HEK-293 clonal cells expressing hGIPR, 0.1% bovine casein, without or with 1.0% human serum albumin; conditions: for Emax: percent of maximal response to GIP(1-42)NH2
T1 construct: expressed in transfected cells
T1 sequence (P48546 22-466): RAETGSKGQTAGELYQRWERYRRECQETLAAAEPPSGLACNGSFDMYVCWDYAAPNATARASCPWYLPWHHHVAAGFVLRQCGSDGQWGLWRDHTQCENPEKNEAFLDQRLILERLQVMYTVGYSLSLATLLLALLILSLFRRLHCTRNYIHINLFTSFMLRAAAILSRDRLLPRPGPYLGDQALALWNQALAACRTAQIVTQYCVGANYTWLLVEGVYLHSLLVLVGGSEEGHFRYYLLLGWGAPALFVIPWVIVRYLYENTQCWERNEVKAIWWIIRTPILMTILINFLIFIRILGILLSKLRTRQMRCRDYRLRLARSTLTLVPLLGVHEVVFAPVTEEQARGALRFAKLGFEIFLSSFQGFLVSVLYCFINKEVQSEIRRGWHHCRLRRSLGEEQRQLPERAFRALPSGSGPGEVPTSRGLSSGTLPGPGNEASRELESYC
Procedure, shortened: as §1

[3] = target: T2, hGCGR (Homo sapiens, UniProt P47871); experiment: Functional cAMP formation (HTRF) in HEK-293 clonal cells expressing hGCGR, 0.1% bovine casein, without or with 1.0% human serum albumin
T2 construct: expressed in transfected cells
Procedure, shortened: as §1

[4] = 37° C., 0.1% bovine casein and 1.0% human serum albumin
[5] = cAMP, 37° C., 0.1% bovine casein (no human serum albumin), read-out: hGLP-1R EC50, nM (SEM, n)
[6] = HEK293, cAMP, 37° C., 0.1% bovine casein and 1.0% human serum albumin, read-out: hGIPR Emax, % ± SEM
[7] = HEK293, cAMP, 37° C., 0.1% bovine casein, arithmetic mean, read-out: hGIPR Emax, % ± SEM
[8] = cAMP, 37° C., 0.1% bovine casein (no human serum albumin), geometric mean, read-out: hGIPR EC50, nM (SEM, n)
[9] = cAMP, 37° C., 0.1% bovine casein (no human serum albumin), geometric mean, read-out: hGCGR EC50, nM (SEM, n)
[10] = cAMP, 37° C., 0.1% bovine casein and 1.0% human serum albumin, geometric mean (SEM, n), read-out: hGCGR EC50, nM (SEM, n)

T2 sequence (P47871 26-477): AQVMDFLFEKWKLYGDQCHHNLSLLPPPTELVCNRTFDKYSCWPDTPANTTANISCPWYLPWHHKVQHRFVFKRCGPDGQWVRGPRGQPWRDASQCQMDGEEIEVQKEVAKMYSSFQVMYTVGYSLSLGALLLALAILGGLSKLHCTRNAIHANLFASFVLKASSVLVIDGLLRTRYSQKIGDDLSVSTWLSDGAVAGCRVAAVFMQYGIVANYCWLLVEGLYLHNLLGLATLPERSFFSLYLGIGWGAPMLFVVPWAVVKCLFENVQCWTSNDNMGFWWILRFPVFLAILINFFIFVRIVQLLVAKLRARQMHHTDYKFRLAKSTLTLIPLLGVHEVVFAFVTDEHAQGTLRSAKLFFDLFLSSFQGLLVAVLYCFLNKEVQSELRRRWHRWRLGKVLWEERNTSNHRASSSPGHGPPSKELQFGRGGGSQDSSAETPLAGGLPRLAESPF
Chain of hGLP-1R (P43220 24-463): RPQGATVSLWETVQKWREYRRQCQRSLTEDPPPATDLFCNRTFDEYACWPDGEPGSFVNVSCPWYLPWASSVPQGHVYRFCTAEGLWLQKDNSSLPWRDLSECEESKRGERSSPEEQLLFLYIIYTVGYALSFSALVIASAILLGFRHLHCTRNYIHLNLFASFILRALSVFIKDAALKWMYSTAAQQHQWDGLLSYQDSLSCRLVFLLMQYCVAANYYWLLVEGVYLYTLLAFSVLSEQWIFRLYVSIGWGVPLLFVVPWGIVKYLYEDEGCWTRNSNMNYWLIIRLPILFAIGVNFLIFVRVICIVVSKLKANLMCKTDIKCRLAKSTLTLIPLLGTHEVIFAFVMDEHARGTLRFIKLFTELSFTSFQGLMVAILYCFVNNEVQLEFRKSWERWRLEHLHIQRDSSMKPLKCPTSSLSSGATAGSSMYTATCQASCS

CC[C@H](C)[C@H](NC(=O)[C@H](CCCN)NC(=O)[C@H](CC(=O)O)NC(=O)[C@H](CC(C)C)NC(=O)[C@](C)(CC(C)C)NC(=O)[C@@H](NC(=O)C(C)(C)NC(=O)[C@@H](NC(=O)[C@H](CC(=O)O)NC(=O)[C@H](CO)NC(=O)[C@@H](NC(=O)[C@](C)(Cc1ccccc1F)NC(=O)[C@@H](NC(=O)CNC(=O)[C@H](CCC(=O)O)NC(=O)C(C)(C)NC(=O)[C@@H](N)Cc1ccc(O)cc1)[C@@H](C)O)[C@@H](C)O)C(C)C)[C@@H](C)CC)C(=O)N[C@@H](C)C(=O)N[C@@H](CCC(N)=O)C(=O)NC(C)(C)C(=O)N[C@@H](CCC(=O)O)C(=O)N[C@@H](Cc1ccccc1)C(=O)N[C@H](C(=O)N[C@@H](CCCCNC(=O)COCCOCCNC(=O)COCCOCCNC(=O)COCCOCCNC(=O)CC[C@H](NC(=O)CCCCCCCCCOc1ccc(C(=O)O)cc1)C(=O)O)C(=O)N[C@@](C)(Cc1ccc(O)cc1)C(=O)N[C@@H](CC(C)C)C(=O)N[C@H](C(=O)N[C@@H](CCCCNC(=O)COCCOCCNC(=O)COCCOCCNC(=O)COCCOCCNC(=O)CC[C@H](NC(=O)CCCCCCCCCOc1ccc(C(=O)O)cc1)C(=O)O)C(=O)NCC(=O)NCC(=O)N1CCC[C@H]1C(=O)N[C@@H](CO)C(=O)N[C@@H](CO)C(=O)NCC(=O)N[C@@H](C)C(=O)N1CCC[C@H]1C(=O)N1CCC[C@H]1C(=O)N1CCC[C@H]1C(=O)N[C@@H](CO)C(N)=O)[C@@H](C)CC)[C@@H](C)CC [Example 347]
EC50 ([1]; hGLP-1R EC50, nM (SEM, n), cAMP, 37° C., 0.1% bovine casein (no human serum albumin)): 0.356 nM | Emax ([2]; HEK293, read-out: hGIPR Emax, % ± SEM, cAMP, 37° C., 0.1% bovine casein and 1.0% human serum albumin): 84.6% | Emax ([2]; HEK293, read-out: hGIPR Emax, % ± SEM, cAMP, 37° C., 0.1% bovine casein, arithmetic mean): 98% | EC50 ([2]; hGIPR EC50, nM (SEM, n), cAMP, 37° C., 0.1% bovine casein (no human serum albumin), geometric mean): 0.0259 nM | EC50 ([3]; hGCGR EC50, nM (SEM, n), cAMP, 37° C., 0.1% bovine casein (no human serum albumin), geometric mean): > 9950 nM | EC50 ([3]; hGCGR EC50, nM (SEM, n), cAMP, 37° C., 0.1% bovine casein and 1.0% human serum albumin, geometric mean (SEM, n)): > 9950 nM

CC[C@H](C)[C@H](NC(=O)[C@H](CCCN)NC(=O)[C@H](CC(=O)O)NC(=O)[C@H](CC(C)C)NC(=O)[C@](C)(CC(C)C)NC(=O)[C@@H](NC(=O)C(C)(C)NC(=O)[C@H](Cc1ccc(O)cc1)NC(=O)[C@H](CC(=O)O)NC(=O)[C@H](CO)NC(=O)[C@@H](NC(=O)[C@](C)(Cc1ccccc1F)NC(=O)[C@@H](NC(=O)CNC(=O)[C@H](CCC(=O)O)NC(=O)C(C)(C)NC(=O)[C@@H](N)Cc1ccc(O)cc1)[C@@H](C)O)[C@@H](C)O)[C@@H](C)CC)C(=O)N[C@@H](C)C(=O)N[C@@H](CCC(N)=O)C(=O)NC(C)(C)C(=O)N[C@@H](CCC(=O)O)C(=O)N[C@@H](Cc1ccccc1)C(=O)N[C@H](C(=O)N[C@@H](CCCCNC(=O)COCCOCCNC(=O)COCCOCCNC(=O)CC[C@H](NC(=O)COCCOCCNC(=O)CCCCCCCCCCCCC(=O)O)C(=O)O)C(=O)N[C@@](C)(Cc1ccc(O)cc1)C(=O)N[C@@H](CC(C)C)C(=O)N[C@H](C(=O)N[C@@H](CCCCNC(=O)COCCOCCNC(=O)COCCOCCNC(=O)CC[C@H](NC(=O)COCCOCCNC(=O)CCCCCCCCCCCCC(=O)O)C(=O)O)C(=O)NCC(=O)NCC(=O)N1CCC[C@H]1C(=O)N[C@@H](CO)C(=O)N[C@@H](CO)C(=O)NCC(=O)N[C@@H](C)C(=O)N1CCC[C@H]1C(=O)N1CCC[C@H]1C(=O)N1CCC[C@H]1C(=O)N[C@@H](CO)C(N)=O)[C@@H](C)CC)[C@@H](C)CC [Example 363]
Emax [1, 4]: 111% | EC50 [1, 5]: 0.34 nM | Emax [2, 6]: 91.1% | Emax [2, 7]: 111% | EC50 [2, 8]: 0.0183 nM | EC50 ([2]; cAMP, 37° C., 0.1% bovine casein and 1.0% human serum albumin, geometric mean (SEM, n), read-out: hGIPR EC50, nM (SEM, n)): 0.976 nM | EC50 [3, 9]: > 9950 nM | EC50 [3, 10]: > 9950 nM

CCCCCCCCCCCC(=O)N[C@@H](CCC(=O)NCCOCCOCC(=O)NCCOCCOCC(=O)NCCOCCOCC(=O)NCCCC[C@H](NC(=O)[C@H](CCCN)NC(=O)[C@H](CC(=O)O)NC(=O)[C@H](CC(C)C)NC(=O)[C@](C)(CC(C)C)NC(=O)[C@@H](NC(=O)C(C)(C)NC(=O)[C@H](Cc1ccncc1)NC(=O)[C@H](CC(=O)O)NC(=O)[C@H](CO)NC(=O)[C@@H](NC(=O)[C@](C)(Cc1ccccc1F)NC(=O)[C@@H](NC(=O)CNC(=O)[C@H](CCC(=O)O)NC(=O)C(C)(C)NC(=O)[C@@H](N)Cc1ccc(O)cc1)[C@@H](C)O)[C@@H](C)O)[C@@H](C)CC)C(=O)N[C@@H](C)C(=O)N[C@@H](CCC(N)=O)C(=O)NC(C)(C)C(=O)N[C@@H](CCCCNC(=O)COCCOCCNC(=O)COCCOCCNC(=O)COCCOCCNC(=O)CC[C@H](NC(=O)CCCCCCCCCCC)C(=O)O)C(=O)N[C@@](C)(Cc1ccccc1)C(=O)N[C@H](C(=O)N[C@H](CCC(=O)O)C(=O)N[C@@](C)(Cc1ccc(O)cc1)C(=O)N[C@@H](CC(C)C)C(=O)N[C@H](C(=O)N[C@@H](CCC(=O)O)C(=O)NCC(=O)NCC(=O)N1CCC[C@H]1C(=O)N[C@@H](CO)C(=O)N[C@@H](CO)C(=O)NCC(=O)N[C@@H](C)C(=O)N1CCC[C@H]1C(=O)N1CCC[C@H]1C(=O)N1CCC[C@H]1C(=O)N[C@@H](CO)C(N)=O)[C@@H](C)CC)[C@@H](C)CC)C(=O)O [Example 437] (H-Y[Aib]EGT[αMePhe(2-F)]TSD[4Pal][Aib]I[αMeL]LD[Orn]K([AEEA-AEEA-AEEA-γGlu-Lauroyl])AQ[Aib]K([AEEA-AEEA-AEEA-γGlu-Lauroyl])[αMeF]I[dE][αMeY]LIEGGPSSGAPPPS-NH2)
Emax [1, 4]: 91.2% | Emax ([1]; 37° C., 0.1% bovine casein, arithmetic mean): 89.2% | EC50 [1, 5]: 0.249 nM | Emax [2, 6]: 96.5% | Emax [2, 7]: 94.8% | EC50 [2, 8]: 0.0146 nM | EC50 [3, 9]: > 9950 nM | EC50 [3, 10]: > 9950 nM

CC[C@H](C)[C@H](NC(=O)[C@H](CC(C)C)NC(=O)[C@](C)(Cc1ccc(O)cc1)NC(=O)[C@H](CCCCNC(=O)COCCOCCNC(=O)CC[C@H](NC(=O)CCCCCCCCCCCCC(=O)O)C(=O)O)NC(=O)[C@@H](NC(=O)[C@H](Cc1ccccc1)NC(=O)[C@H](CCC(=O)O)NC(=O)C(C)(C)NC(=O)[C@H](CCC(N)=O)NC(=O)[C@H](C)NC(=O)[C@H](CCCCNC(=O)COCCOCCNC(=O)CC[C@H](NC(=O)CCCCCCCCCCCCC(=O)O)C(=O)O)NC(=O)[C@H](CCCN)NC(=O)[C@H](CC(=O)O)NC(=O)[C@H](CC(C)C)NC(=O)[C@](C)(CC(C)C)NC(=O)[C@@H](NC(=O)[C@H](CO)NC(=O)[C@H](Cc1ccncc1)NC(=O)[C@H](CC(=O)O)NC(=O)[C@H](CO)NC(=O)[C@@H](NC(=O)[C@](C)(Cc1ccccc1F)NC(=O)[C@@H](NC(=O)CNC(=O)[C@H](CCC(=O)O)NC(=O)C(C)(C)NC(=O)[C@@H](N)Cc1ccc(O)cc1)[C@@H](C)O)[C@@H](C)O)[C@@H](C)CC)[C@@H](C)CC)C(=O)N[C@@H](CCC(=O)O)C(=O)NCC(=O)NCC(=O)N1CCC[C@H]1C(=O)N[C@@H](CO)C(=O)N[C@@H](CO)C(=O)NCC(=O)N[C@@H](C)C(=O)N1CCC[C@H]1C(=O)N1CCC[C@H]1C(=O)N1CCC[C@H]1C(=O)N[C@@H](CO)C(N)=O [Example 79]
EC50 ([1]; hGLP-1R EC50, nM (SEM, n), 0.1% bovine casein and 1.0% human serum albumin, 37° C.): 15.1 nM | EC50 ([1]; hGLP-1R EC50, nM (SEM, n), cAMP, incubated at 37° C., 0.1% bovine casein (no human serum albumin)): 0.223 nM | Emax ([2]; HEK293, read-out: hGIPR Emax, % ± SEM, 0.1% bovine casein and 1.0% human serum albumin, 37° C.): 95% | EC50 ([2]; hGIPR EC50, nM (SEM, n), 0.1% bovine casein and 1.0% human serum albumin, 37° C., geometric mean): 2.31 nM | EC50 ([2]; hGIPR EC50, nM (SEM, n), cAMP, incubated at 37° C., 0.1% bovine casein (no human serum albumin), geometric mean): 0.013 nM | EC50 ([3]; hGCGR EC50, nM (SEM, n), 0.1% bovine casein and 1.0% human serum albumin, 37° C., geometric mean): > 9950 nM | EC50 ([3]; hGCGR EC50, nM (SEM, n), cAMP, incubated at 37° C., 0.1% bovine casein (no human serum albumin), geometric mean): > 9950 nM
